Measurements as given in patent US20230066011A1, “PYRROLOPYRIMIDINE DERIVATIVE, AND PHARMACEUTICAL COMPOSITION FOR PREVENTING OR TREATING PROTEIN KINASE-RELATED DISEASE COMPRISING SAME AS ACTIVE INGREDIENT” (VORONOI CO., LTD., priority 2019, published 2023).

What was measured:
human GST-DYRK1A = target: T1, human GST-DYRK1A (Homo sapiens, UniProt Q13627); assay: GST-DYRK1A enzyme inhibition, ADP-Glo kinase assay; type: biochemical; details: ATP 10 μM, GST-DYRK1A full length, read-out: DYRK1 IC50
T1 construct: purified human GST-DYRK1A (full length, Thermo Scientifics) enzyme; purchased Thermo Scientifics
Procedure, shortened: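 Full-length human GST-DYRK1A (10 ng) with 10 μM ATP and specific substrate in 40 mM Tris-HCl pH 7.4, 20 mM MgCl2, 0.5 mg/mL BSA, 50 μM DTT, 1 h at 25 °C. ADP formation read by ADP-Glo luminescence relative to solvent control; IC50 from three data sets.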

human GST-CLK1 = target: T2, human GST-CLK1 (Homo sapiens, UniProt P49759); assay: GST-CLK1 enzyme inhibition, ADP-Glo kinase assay; type: biochemical; details: ATP 10 μM, GST-CLK1 129-end
T2 construct: purified human GST-CLK1 (129-end, SignalChem) enzyme; purchased SignalChem
Procedure, shortened: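 Human GST-CLK1 (129-end, 3 ng) reacted with substrate and 10 μM ATP for 1 h at 25° C in 40 mM Tris-HCl pH 7.4, 20 mM MgCl2, 0.5 mg/mL BSA, 50 μM DTT. ADP-Glo luminescence was normalised to solvent control; IC50 (nM) from 3 data sets.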

T2 sequence (P49759 129-484 limits assumed): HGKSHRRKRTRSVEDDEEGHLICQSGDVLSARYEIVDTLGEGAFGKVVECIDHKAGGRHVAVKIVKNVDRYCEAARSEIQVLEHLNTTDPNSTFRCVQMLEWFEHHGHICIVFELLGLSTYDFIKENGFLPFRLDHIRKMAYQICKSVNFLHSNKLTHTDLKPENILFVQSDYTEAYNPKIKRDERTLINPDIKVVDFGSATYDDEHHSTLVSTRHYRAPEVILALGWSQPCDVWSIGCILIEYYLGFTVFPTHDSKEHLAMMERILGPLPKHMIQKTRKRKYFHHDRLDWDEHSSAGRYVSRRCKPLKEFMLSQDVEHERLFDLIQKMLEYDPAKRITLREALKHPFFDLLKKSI

| IC50 (human GST-DYRK1A) | IC50 (human GST-CLK1) | SMILES |
| --- | --- | --- |
| 301 to 1000 nM | < 100 nM | N#Cc1c[nH]c2nc(Nc3ccc(C(=O)N4CCN(C5COC5)CC4)c4c3OCCO4)nc(NCC3CC3)c12 [Example 317, 4-((cyclo-propylmeth-yl)amino)-2-((8-(4-(oxetan-3-yl)piperazine-1-carbonyl)-2,3-dihydrobenzo[b] [1,4]dioxin-5-yl)amino)-7H-pyrrolo[2,3-d]pyrimidine-5-carbonitrile] |
| 301 to 1000 nM | 101 to 300 nM | N#Cc1c[nH]c2nc(Nc3ccc(C(=O)N4CCN(C5COC5)CC4)c4c3OCCO4)nc(NCC3CCC3)c12 [Example 318, 4-((cyclo-butylmethyl)amino)-2-((8-(4-(oxetan-3-yl)piperazine-1-carbonyl)-2,3-dihydrobenzo[b] [1,4]dioxin-5-yl)amino)-7H-pyrrolo[2,3-d]pyrimidine-5-carbonitrile] |
| 101 to 300 nM | 301 to 1000 nM | COc1cc(P2(=O)CCN(C3CC3)CC2)ccc1Nc1nc(NC2CCCCC2)c2c(C#N)c[nH]c2n1 [Example 323, 4-(cyclo-hexylamino)-2-((4-(1-cyclopropyl-4-oxido-1,4-azaphosphinan-4-yl)-2-methoxyphenyl)a-mino)-7H-pyrrolo[2,3-d]pyrimidine-5-carbonitrile] |
| 301 to 1000 nM | < 100 nM | COc1cc(P2(=O)CCN(C3CCOCC3)CC2)ccc1Nc1nc(NC2CCCCC2)c2c(C#N)c[nH]c2n1 [Example 324, 4-(cyclo-hexylamino)-2-((2-methoxy-4-(4-oxido-1-(tetrahydro-2H-pyran-4-yl)-1,4-azaphosphinan-4-yl)phenyl)amino)-7H-pyrrolo[2,3-d]pyrimidine-5-carbonitrile] |
| 301 to 1000 nM | < 100 nM | CCCNc1nc(Nc2ccc(C(=O)N3CC(CO)(CO)C3)c3c2OCCO3)nc2[nH]cc(C#N)c12 [Example 327, 2-((8-(3,3-bis(hydroxy-methyl)azetidine-1-carbonyl)-2,3-dihydrobenzo[b] [1,4]dioxin-5-yl)amino)-4-(propylamino)-7H-pyrrolo[2,3-d]pyrimidine-5-carbonitrile] |
| 301 to 1000 nM | < 100 nM | CC(C)CNc1nc(Nc2ccc(C(=O)N3CC(CO)(CO)C3)c3c2OCCO3)nc2[nH]cc(C#N)c12 [Example 328, 2-((8-(3,3-bis (hydroxymethyl)azetidine-1-carbonyl)-2,3-dihydrobenzo[b] [1,4]dioxin-5-yl)amino)-4-(isobutylamino)-7H-pyrrolo[2,3-d]pyrimidine-5-carbonitrile] |
| 301 to 1000 nM | < 100 nM | CC(C)Nc1nc(Nc2ccc(C(=O)N3CC(CO)(CO)C3)c3c2OCCO3)nc2[nH]cc(C#N)c12 [Example 329, 2-((8-(3,3-bis (hydroxymethyl)azetidine-1-carbonyl)-2,3-dihydrobenzo[b] [1,4]dioxin-5-yl)amino)-4-(isopropylamino)-7H-pyrrolo[2,3-d]pyrimidine-5-carbonitrile] |
| 301 to 1000 nM | < 100 nM | CC[C@@H](C)Nc1nc(Nc2ccc(C(=O)N3CC(CO)(CO)C3)c3c2OCCO3)nc2[nH]cc(C#N)c12 [Example 330, (R)-2-((8-(3,3-bis(hydroxy-methyl)azetidine-1-carbonyl)-2,3-dihydrobenzo[b] [1,4]dioxin-5-yl)amino)-4-(sec-butylamino)-7H-pyrrolo[2,3-d]pyrimidine-5-carbonitrile] |
| 301 to 1000 nM | < 100 nM | CC[C@H](C)Nc1nc(Nc2ccc(C(=O)N3CC(CO)(CO)C3)c3c2OCCO3)nc2[nH]cc(C#N)c12 [Example 331, (S)-2-((8-(3,3-bis(hydroxy-methyl)azetidine-1-carbonyl)-2,3-dihydrobenzo[b] [1,4]dioxin-5-yl)amino)-4-(sec-butylamino)-7H-pyrrolo[2,3-d]pyrimidine-5-carbonitrile] |
| 301 to 1000 nM | < 100 nM | N#Cc1c[nH]c2nc(Nc3ccc(C(=O)N4CC(CO)(CO)C4)c4c3OCCO4)nc(NC3CCC3)c12 [Example 333, 2-((8-(3,3-bis (hydroxymethyl)azetidine-1-carbonyl)-2,3-dihydrobenzo[b] [1,4]dioxin-5-yl)amino)-4-(cyclobutyl-amino)-7H-pyrrolo[2,3-d]pyrimidine-5-carbonitrile] |
| 301 to 1000 nM | < 100 nM | N#Cc1c[nH]c2nc(Nc3ccc(C(=O)N4CC(CO)(CO)C4)c4c3OCCO4)nc(NC3CCCC3)c12 [Example 334, 2-((8-(3,3-bis (hydroxymethyl)azetidine-1-carbonyl)-2,3-dihydrobenzo[b] [1,4]dioxin-5-yl)amino)-4-(cyclopentyl-amino)-7H-pyrrolo[2,3-d]pyrimidine-5-carbonitrile] |
| 101 to 300 nM | < 100 nM | N#Cc1c[nH]c2nc(Nc3ccc(C(=O)N4CC(CO)(CO)C4)c4c3OCCO4)nc(N[C@@H]3CCOC3)c12 [Example 335, (R)-2-((8-(3,3-bis(hydroxy-methyl)azetidine-1-carbonyl)-2,3-dihydrobenzo[b] [1,4]dioxin-5-yl)amino)-4-((tetrahydrofuran-3-yl)amino)-7H-pyrrolo[2,3-d]pyrimidine-5-carbonitrile] |
| 301 to 1000 nM | < 100 nM | N#Cc1c[nH]c2nc(Nc3ccc(C(=O)N4CC(CO)(CO)C4)c4c3OCCO4)nc(N[C@H]3CCOC3)c12 [Example 336, (S)-2-((8-(3,3-bis (hydroxymethyl)azetidine-1-carbonyl)-2,3-dihydrobenzo[b] [1,4]dioxin-5-yl)amino)-4-((tetrahydrofuran-3-yl)amino)-7H-pyrrolo[2,3-d]pyrimidine-5-carbonitrile] |
| 301 to 1000 nM | < 100 nM | N#Cc1c[nH]c2nc(Nc3ccc(C(=O)N4CC(CO)(CO)C4)c4c3OCCO4)nc(NC3CCOCC3)c12 [Example 337, 2-((8-(3,3-bis (hydroxymethyl)azetidine-1-carbonyl)-2,3-dihydrobenzo[b] [1,4]dioxin-5-yl)amino)-4-((tetrahydro-2H-pyran-4-yl)amino)-7H-pyrrolo[2,3-d]pyrimidine-5-carbonitrile] |
| 101 to 300 nM | < 100 nM | N#Cc1c[nH]c2nc(Nc3ccc(C(=O)N4CC(CO)(CO)C4)c4c3OCCO4)nc(NCC3CC3)c12 [Example 338, 2-((8-(3,3-bis (hydroxymethyl)azetidine-1-carbonyl)-2,3-dihydrobenzo [b][1,4]dioxin-5-yl)amino)-4-((cyclopropyl-meth-yl)amino)-7H-pyrrolo[2,3-d]pyrimidine-5-carbonitrile] |
| 301 to 1000 nM | < 100 nM | N#Cc1c[nH]c2nc(Nc3ccc(C(=O)N4CC(CO)(CO)C4)c4c3OCCO4)nc(NCC3CCC3)c12 [Example 339, 2-((8-(3,3-bis (hydroxymethyl)azetidine-1-carbonyl)-2,3-dihydrobenzo [b][1,4]dioxin-5-yl)amino)-4-((cyclobutyl-methyl)amino)-7H-pyrrolo[2,3-d]pyrimidine-5-carbonitrile] |
| 301 to 1000 nM | < 100 nM | N#Cc1c[nH]c2nc(Nc3ccc(C(=O)N4CC(CO)(CO)C4)c4c3OCCO4)nc(NCC3CCCC3)c12 [Example 340, 2-((8-(3,3-bis (hydroxymethyl)azetidine-1-carbonyl)-2,3-dihydrobenzo [b][1,4]dioxin-5-yl)amino)-4-((cyclopentyl-methyl)amino)-7H-pyrrolo[2,3-d]pyrimidine-5-carbonitrile] |
| 301 to 1000 nM | < 100 nM | CCCCNc1nc(Nc2ccc(C(=O)N3CC(CO)(CO)C3)c3c2OCCO3)nc2[nH]cc(C#N)c12 [Example 341, 2-((8-(3,3-bis (hydroxymethyl)azetidine-1-carbonyl)-2,3-dihydrobenzo [b][1,4]dioxin-5-yl)amino)-4-(butylamino)-7H-pyrrolo[2,3-d]pyrimidine-5-carbonitrile] |
| 301 to 1000 nM | 301 to 1000 nM | N#Cc1c[nH]c2nc(Nc3ccc(C(=O)N4CCOCC4)c4c3OCC4)nc(NCC3CCCC3)c12 [Example 342, 4-((cyclo-pentylmeth-yl)amino)-2-((4-(morpholine-4-carbonyl)-2,3-dihydrobenzo-furan-7-yl)amino)-7H-pyrrolo[2,3-d]pyrimidine-5-carbonitrile] |
| 301 to 1000 nM | < 100 nM | CS(=O)(=O)CCNc1nc(Nc2ccc(C(=O)N3CCOCC3)c3c2OCC3)nc2[nH]cc(C#N)c12 [Example 344, 4-((2-(methyl-sulfonyl)eth-yl)amino)-2-((4-(morpholine-4-carbonyl)-2,3-dihydrobenzo-furan-7-yl)amino)-7H-pyrrolo[2,3-d]pyrimidine-5-carbonitrile] |
| 101 to 300 nM | < 100 nM | CCNc1nc(Nc2ccc(C(=O)N3CCOCC3)c3c2OCC3)nc2[nH]cc(C#N)c12 [Example 346, 4-(ethylamino)-2-((4-(morpholine-4-carbonyl)-2,3-dihydrobenzo-furan-7-yl)amino)-7H-pyrrolo[2,3-d]pyrimidine-5-carbonitrile] |
| 301 to 1000 nM | < 100 nM | CCCNc1nc(Nc2ccc(C(=O)N3CCOCC3)c3c2OCC3)nc2[nH]cc(C#N)c12 [Example 348, 2-((4-(morpholine-4-carbonyl)-2,3-dihydrobenzo-furan-7-yl)amino)-4-(propylamino)-7H-pyrrolo[2,3-d]pyrimidine-5-carbonitrile] |
| 301 to 1000 nM | < 100 nM | CC(C)CNc1nc(Nc2ccc(C(=O)N3CCOCC3)c3c2OCC3)nc2[nH]cc(C#N)c12 [Example 350, 4-(isobutyl-amino)-2-((4-(morpholine-4-carbonyl)-2,3-dihydrobenzo-furan-7-yl)amino)-7H-pyrrolo[2,3-d]pyrimidine-5-carbonitrile] |
